Patent publication US9012460B2, “1-(2-phenoxymethylphenyl)piperazine compounds” (Theravance Biopharma R&D IP, LLC, priority 2010, dated 2015)

Legend:
hNET [1] = biological target: T1, hNET (Homo sapiens, UniProt P23975); assay: hNET membrane radioligand binding assay (Assay 1); conditions: 3H-nisoxetine, membranes from HEK-293 cells expressing hNET; read-out: NET pKi (converted)
T1 construct: expressed in transfected cells; host or cells: HEK-293
Experimental: (§1) Membrane radioligand binding assays were used to measure inhibition of labeled ligand (^3H-citalopram or ^3H-nisoxetine or ^3H-WIN35428) binding to membranes prepared from cells expressing the respective human recombinant transporter (hSERT or hNET or hDAT) in order to determine the pKi values of test compounds at the transporters.
(§2) Recombinant human embryonic kidney (HEK-293) derived cell lines stably transfected with hSERT or hNET, respectively, were grown in DMEM medium supplemented with 10% dialyzed FBS (for hSERT) or FBS (for hNET), 100 μg/ml penicillin, 100 μg/ml streptomycin, 2 mM L-glutamine and 250 μg/ml of the aminoglycoside antibiotic G418, in a 5% CO2 humidified incubator at 37° C. When cultures reached 80% confluence, the cells were washed thoroughly in PBS (without Ca^2+ and Mg^2+) and lifted with 5 mM EDTA in PBS. Cells were pelleted by centrifugation, resuspended in lysis buffer (10 mM Tris-HCl, pH7.5 containing 1 mM EDTA), homogenized, pelleted by centrifugation, then resuspended in 50 mM Tris-HCl, pH 7.5 and 10% sucrose at 4° C. Protein concentration of the membrane suspension was determined using a Bio-Rad Bradford Protein Assay kit. Membranes were snap frozen and stored at −80° C. Chinese hamster ovary membranes expressing hDAT (CHO-DAT) were purchased from PerkinElmer and stored at −80° C.
(§3) Binding assays were performed in a 96-well assay plate in a total volume of 200 μL assay buffer (50 mM Tris-HCl, 120 mM NaCl, 5 mM KCl, pH 7.4) with 0.5, 1, and 3 μg membrane protein, for SERT, NET and DAT, respectively.
(§4) Stock solutions (10 mM in DMSO) of test compound were prepared and serial dilutions made using Dilution Buffer (50 mM Tris-HCl, 120 mM NaCl, 5 mM KCl, pH 7.4, 0.1% BSA, 400 μM ascorbic acid).
(§5) Following a 60 minute incubation at 22° C. (or a period sufficient to reach equilibrium), the membranes were harvested by rapid filtration over a 96-well UniFilter GF/B plate, pretreated with 0.3% polyethyleneimine, and washed 6 times with 300 μl wash buffer (50 mM Tris-HCl, 0.9% NaCl, pH 7.5 at 4° C.). Plates were dried overnight at room temperature, ˜45 μl of MicroScint™-20 (Perkin Elmer) added and bound radioactivity quantitated via liquid scintillation spectroscopy. Inhibition curves and saturation isotherms were analyzed using GraphPad Prism Software package (GraphPad Software, Inc., San Diego, Calif.). IC50 values were generated from concentration response curves using the Sigmoidal Dose Response (variable slope) algorithm in Prism GraphPad. Kd and Bmax values for the radioligand were generated from saturation isotherms using the Saturation Binding Global Fit algorithm in Prism GraphPad. pKi (negative decadic logarithm of Ki) values for test compounds were calculated from the best-fit IC50 values, and the Kd value of the radioligand, using the Cheng-Prusoff equation (Cheng & Prusoff (1973) Biochem. Pharmacol. 22(23):3099-3108): Ki=IC50/(1+[L]/Kd), where [L]=concentration radioligand.

hSERT [2] = biological target: T2, hSERT (Homo sapiens, UniProt P31645); assay: hSERT membrane radioligand binding assay (Assay 1); conditions: 3H-citalopram, membranes from HEK-293 cells expressing hSERT; read-out: SERT pKi (converted)
T2 construct: expressed in transfected cells; host or cells: HEK-293
T2 sequence (P31645 whole entry): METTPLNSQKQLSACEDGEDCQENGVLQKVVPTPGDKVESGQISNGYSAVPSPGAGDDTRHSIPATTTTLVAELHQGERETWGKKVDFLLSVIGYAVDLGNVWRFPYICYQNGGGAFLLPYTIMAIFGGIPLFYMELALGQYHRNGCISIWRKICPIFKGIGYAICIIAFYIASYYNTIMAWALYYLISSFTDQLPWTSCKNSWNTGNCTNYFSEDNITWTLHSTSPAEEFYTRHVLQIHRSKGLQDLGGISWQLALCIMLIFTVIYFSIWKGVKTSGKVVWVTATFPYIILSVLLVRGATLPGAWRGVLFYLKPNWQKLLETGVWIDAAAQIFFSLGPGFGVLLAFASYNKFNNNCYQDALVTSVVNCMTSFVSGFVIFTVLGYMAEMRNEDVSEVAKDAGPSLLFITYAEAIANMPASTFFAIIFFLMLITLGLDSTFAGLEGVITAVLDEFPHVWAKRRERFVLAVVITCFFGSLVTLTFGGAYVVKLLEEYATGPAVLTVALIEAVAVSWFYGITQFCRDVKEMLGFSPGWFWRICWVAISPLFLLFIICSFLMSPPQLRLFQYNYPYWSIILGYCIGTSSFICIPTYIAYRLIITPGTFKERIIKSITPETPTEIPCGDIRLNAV
Experimental: as §1, §2, §3, §4, §5

hNET [3] = biological target: T1, hNET; assay: hNET neurotransmitter uptake assay (Assay 2) or fluorescence-based assay of Tsuruda et al.; format: cell-based; conditions: norepinephrine reuptake inhibition; asterisk = fluorescence-based assay (Tsuruda et al. 2010); read-out: NET pIC50 (converted)
Experimental: (§6) Neurotransmitter uptake assays were used to measure inhibition of ^3H-serotonin (^3H-5-HT), ^3H-norepinephrine (^3H-NE), and ^3H-dopamine (^3H-DA) uptake into cells expressing the respective transporter (hSERT, hNET or hDAT) in order to determine the pIC50 values of test compounds at the transporters.
(§7) HEK-293 derived cell lines stably-transfected with hSERT, hNET, or hDAT, respectively, were grown in DMEM medium supplemented with 10% dialyzed FBS (for hSERT) or FBS (for hNET and hDAT), 100 μg/ml penicillin, 100 μg/ml streptomycin, 2 mM L-glutamine and 250 μg/ml of the aminoglycoside antibiotic G418 (for hSERT and hNET) or 800 ug/ml (for hDAT), in a 5% CO2 humidified incubator at 37° C. When cultures reached 80% confluence, the cells were washed thoroughly in PBS (without Ca^2+and Mg^2+) and lifted with 5 mM EDTA in PBS. […]
(§8) Following a 10 minute incubation, at 37° C., with radioligand, the cells were harvested by rapid filtration over a 96-well UniFilter GF/B plate, pretreated with 1% BSA, and washed 6 times with 650 μl wash buffer (ice cold PBS). Plates were dried overnight at 37° C., ˜45 μl of MicroScint™-20 (Perkin Elmer) added and incorporated radioactivity quantitated via liquid scintillation spectroscopy. Inhibition curves were analyzed using GraphPad Prism Software package (GraphPad Software, Inc., San Diego, Calif.). […]

hSERT [4] = biological target: T2, hSERT; assay: hSERT neurotransmitter uptake assay (Assay 2) or fluorescence-based assay of Tsuruda et al.; format: cell-based; conditions: serotonin reuptake inhibition; asterisk = fluorescence-based assay (Tsuruda et al. 2010); read-out: SERT pIC50 (converted)
Experimental: as §6, §7, §8

T1 sequence (P23975 whole entry): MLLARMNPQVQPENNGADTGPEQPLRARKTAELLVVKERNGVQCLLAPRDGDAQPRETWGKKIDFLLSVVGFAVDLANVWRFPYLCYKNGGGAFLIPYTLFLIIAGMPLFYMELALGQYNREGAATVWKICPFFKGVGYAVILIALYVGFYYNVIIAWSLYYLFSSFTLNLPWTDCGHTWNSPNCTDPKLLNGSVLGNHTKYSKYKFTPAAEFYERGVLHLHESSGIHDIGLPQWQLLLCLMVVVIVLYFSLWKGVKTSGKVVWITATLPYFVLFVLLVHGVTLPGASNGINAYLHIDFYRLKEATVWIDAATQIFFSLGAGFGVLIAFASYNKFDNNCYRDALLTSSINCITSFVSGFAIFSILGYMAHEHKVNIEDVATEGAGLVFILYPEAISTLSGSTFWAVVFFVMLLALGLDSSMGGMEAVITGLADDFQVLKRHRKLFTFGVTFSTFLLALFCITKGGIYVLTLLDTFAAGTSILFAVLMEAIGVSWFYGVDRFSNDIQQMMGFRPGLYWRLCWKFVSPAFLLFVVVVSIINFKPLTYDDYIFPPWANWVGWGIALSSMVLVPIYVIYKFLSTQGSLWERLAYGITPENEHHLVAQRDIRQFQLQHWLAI

SMILES | Ki (hNET [1]) | Ki (hSERT [2]) | IC50 (hNET [3]) | IC50 (hSERT [4])
Ic1ccccc1OCc1ccccc1N1CCNCC1 [Example 2-3] | ≤ 0.1 µM | ≤ 0.1 µM |  | 
Cc1cccc(OCc2ccccc2N2CCNCC2)c1 [Example 2-14] | ≤ 10 µM | ≤ 0.1 µM |  | 
Cc1c(Cl)cccc1OCc1ccccc1N1CCNCC1 [Example 2-21] | ≤ 0.1 µM | ≤ 0.1 µM |  | 
Clc1ccc(Cl)c(OCc2ccccc2N2CCNCC2)c1 [Example 2-26] | ≤ 10 µM | ≤ 0.1 µM |  | 
Fc1ccc(Br)cc1OCc1ccccc1N1CCNCC1 [Example 2-25] | ≤ 0.1 µM | ≤ 0.1 µM |  | 
Fc1cc(OCc2ccccc2N2CCNCC2)ccc1Cl [Example 2-34] | ≤ 0.1 µM | ≤ 0.1 µM |  | 
Clc1cc(Cl)c(Cl)c(OCc2ccccc2N2CCNCC2)c1Cl [Example 2-40] | ≤ 10 µM | ≤ 0.1 µM |  | 
N#Cc1c(F)cccc1OCc1ccccc1N1CCNCC1 [Example 2-22] | ≤ 10 µM | ≤ 0.1 µM |  | 
Cc1ccc(OCc2ccccc2N2CCNCC2)cc1 [Example 2-17] | ≤ 10 µM | ≤ 10 µM |  | 
CC(C)(C)c1cccc(OCc2ccccc2N2CCNCC2)c1 [Example 2-15] | ≤ 10 µM | ≤ 10 µM |  | 
Fc1ccc(F)c(OCc2ccccc2N2CCNCC2)c1 [Example 2-23] | ≤ 10 µM | ≤ 0.1 µM |  | 
CCc1ccccc1OCc1ccccc1N1CCNCC1 [Example 2-6] | ≤ 10 µM | ≤ 0.1 µM |  | 
Fc1ccc(Cl)cc1OCc1ccccc1N1CCNCC1 [Example 2-24] | ≤ 10 µM | ≤ 0.1 µM |  | 
Fc1ccc(Br)c(OCc2ccccc2N2CCNCC2)c1 [Example 2-28] | ≤ 10 µM | ≤ 0.1 µM |  | 
c1ccc(-c2ccccc2OCc2ccccc2N2CCNCC2)cc1 [Example 2-8] | ≤ 10 µM | ≤ 0.1 µM |  | 
Clc1ccc(OCc2ccccc2N2CCNCC2)cc1Cl [Example 2-35] | ≤ 0.1 µM | ≤ 0.1 µM |  | 
N#Cc1ccc(Cl)cc1OCc1ccccc1N1CCNCC1 [Example 2-32] | ≤ 10 µM | ≤ 0.1 µM |  | 
Clc1cccc(OCc2ccccc2N2CCNCC2)c1 [Example 2-12] | ≤ 0.1 µM | ≤ 0.1 µM | ≤ 0.1 µM | ≤ 0.1 µM
Fc1c(Cl)cccc1OCc1ccccc1N1CCNCC1 [Example 2-18] | ≤ 10 µM | ≤ 0.1 µM |  | 
Ic1cccc(OCc2ccccc2N2CCNCC2)c1 [Example 1, 1-[2-(3-Iodophenoxymethyl)phenyl]piperazine] | ≤ 0.1 µM | ≤ 0.1 µM |  | 
c1ccc(Cc2ccccc2OCc2ccccc2N2CCNCC2)cc1 [Example 2-9] | ≤ 10 µM | ≤ 0.1 µM |  | 
